{
  "source": "patent US20060292186A1",
  "about": "“Self-nanoemulsifying oily formulation for the administration of poorly water-soluble drugs” (Novagali Pharma SA, priority 2003, published 2006)",
  "key": {"[1]": {"experiment": "Dose versus plasma AUC pharmacokinetic study of paclitaxel SNEOF after cyclosporin A oral pre-treatment in wild type mice", "assay_type": "in vivo, FVB Wild type Mice", "conditions": "10-60 mg/kg p.o., CsA constant at 10 mg/kg", "procedure": "Each cohort consisted of 20 mice. At the specified times, animals were anaesthetized using metofane. After fixation on their back, with their chest in an upright position blood was collected by cardiac puncture using a 1 mL polypropylene syringe fitted with 25 g needle. Blood was transferred immediately into tubes containing potassium EDTA as anticoagulant and mixed by inversion. Blood samples were centrifuged vial for 5 min at 4000 g. The supernatant plasma fraction was transferred to a clean tube with appropriate label and stored at -20° C. until analyses. […] Plasma samples for subsequent analysis were obtained from all animals. […] Plasma concentration data were reported. Plasma concentrations versus time curves were fitted using the […] software package (version 3.0) and pharmacokinetic parameters: […]"}, "[2]": {"conditions": "humans, without enhancer; cited from earlier work"}},
  "data": [
    {"smiles": "CC(=O)O[C@H]1C(=O)[C@@]2(C)[C@H]([C@H](OC(=O)c3ccccc3)[C@]3(O)C[C@H](OC(=O)[C@H](O)[C@@H](NC(=O)c4ccccc4)c4ccccc4)C(C)=C1C3(C)C)[C@]1(OC(C)=O)CO[C@@H]1C[C@@H]2O", "note": "[paclitaxel, Paclitaxel]", "values": [
      {"measurement": "linearity of oral bioavailability with dose", "setting": "[1]", "result": "not linear but decreased significantly with dose"},
      {"measurement": "systemic bioavailability after oral paclitaxel administration", "setting": "[2]", "result": "less than 6%"}
    ]}
  ]
}
